PMC9971447 (Asian Pacific Journal of Cancer Prevention : APJCP, 2022)
Read-outs that look alike come from different tables or passages of the source.

Assays:
[1] = test system: SW620; assay: SRB antiproliferation assay, SW620 colorectal cancer cells; assay type: cell-based; settings: read-out: Cytotoxicity (as of %Control) IC50 value, SW620, 72 h incubations, mean ± SD, n = 3
[2] = test system: A375.2S cell line; settings: read-out: antiproliferative IC50, A375.2S cell line; ref AlKhalil et al., 2020; cited from earlier work
[3] = test system: HCT116; assay: SRB antiproliferation assay, HCT116 colorectal cancer cells; assay type: cell-based
[4] = test system: SW620; settings: read-out: IC50 value in SW620 cells; ref Mamdooh et al., 2019; cited from earlier work
[5] = test system: RAW 264.7 mouse macrophage cell line (nitric oxide synthase readout); assay: LPS-triggered NO; assay type: cell-based; settings: for antiinflammation potency compared with indomethacin: LPS-triggered inflammation in RAW macrophages, in words
[6] = test system: T47D; settings: read-out: antiproliferative IC50, T47D cell line; ref AlKhalil et al., 2020; cited from earlier work
[7] = test system: T47D; assay: SRB antiproliferation assay, T47D breast cancer cells; assay type: cell-based
[8] = test system: SW480; assay: SRB antiproliferation assay, SW480 colorectal cancer cells; assay type: cell-based
[9] = test system: MCF7; assay: SRB antiproliferation assay, MCF7 breast cancer cells; assay type: cell-based
[10] = test system: PANC1; assay: SRB antiproliferation assay, PANC1 pancreatic cells; assay type: cell-based
[11] = test system: colorectal cancer cell lines; settings: ref Mamdooh et al., 2019; cited from earlier work
[12] = test system: CACO2; assay: SRB antiproliferation assay, CACO2 colorectal cancer cells; settings: read-out: Cytotoxicity (as of %Control) IC50 value, CACO2, 72 h incubations, mean ± SD, n = 3
[13] = test system: HT29; assay: SRB antiproliferation assay, HT29 colorectal cancer cells; assay type: cell-based; settings: read-out: Cytotoxicity (as of %Control) IC50 value, HT29, 72 h incubations, mean ± SD, n = 3
[14] = Mus musculus, RAW264.7, 24 h, read-out: NOS- IC50 value, LPS 20 μg/mL, RAW264.7, 24h incubations, mean ± SD, n = 3
[15] = read-out: NOS- IC50 value, LPS 20 μg/mL, RAW264.7, 24h incubations, mean ± SD, n = 3
[16] = read-out: Cytotoxicity (as of %Control) IC50 value, T47D, SRB, 72 h incubations, mean ± SD, n = 3
[17] = Homo sapiens, SW480, 72 h, read-out: Cytotoxicity (as of %Control) IC50 value, SW480, SRB, 72 h incubations, mean ± SD, n = 3
[18] = Homo sapiens, MCF7, 72 h, read-out: Cytotoxicity (as of %Control) IC50 value, MCF7, SRB, 72 h incubations, mean ± SD, n = 3
[19] = Homo sapiens, PANC-1, 72 h, read-out: Cytotoxicity (as of %Control) IC50 value, PANC 1, SRB, 72 h incubations, mean ± SD, n = 3
[20] = read-out: Cytotoxicity (as of %Control) IC50 value, MCF7, SRB, 72 h incubations, mean ± SD, n = 3
[21] = Homo sapiens, T47D, 72 h, read-out: Cytotoxicity (as of %Control) IC50 value, T47D, SRB, 72 h incubations, mean ± SD, n = 3
[22] = read-out: Cytotoxicity (as of %Control) IC50 value, SW480, SRB, 72 h incubations, mean ± SD, n = 3

Question: Which IC50 [1] does the source give for `CC(C)c1c(C(=O)Nc2ccccc2)c(-c2ccccc2)c(-c2ccc(F)cc2)n1CC[C@@H](O)C[C@@H](O)CC(=O)O` [Atorvastatin] here?
Answer: < 50 µM

Question: What about the IC50 [2] of the same molecule?
Answer: 15.6 nM

Question: What about the IC50 ([3]; read-out: Cytotoxicity (as of %Control) IC50 value, HCT116, SRB, 72 h incubations, mean ± SD, n = 3) of the same molecule?
Answer: < 50000 nM

Question: What about the IC50 [4] of the same molecule?
Answer: 1.8 nM

Question: And the “antiinflammation potency compared with indomethacin” value [5]?
Answer: substantially more potent

Question: What about the IC50 [5, 14] of the same molecule?
Answer: 42 µM

Question: What about the IC50 [5, 15] of the same molecule?
Answer: 42.8 ± 7.17 µM

Question: And the IC50 [6]?
Answer: 34.6 µM

Question: Which results are given for `COCc1c(C(C)C)nc(C(C)C)c(/C=C/[C@@H](O)C[C@@H](O)CC(=O)O)c1-c1ccc(F)cc1` [Cerivastatin]?
Answer: IC50 ([3]; Homo sapiens, HCT-116, 72 h, read-out: Cytotoxicity (as of %Control) IC50 value, HCT116, SRB, 72 h incubations, mean ± SD, n = 3): 2900 nM; NOS- IC50 value ([5]; LPS 20 μg/mL, RAW264.7, 24h incubations, mean ± SD, n = 3): lack and noninhibitory; IC50 [7, 16]: < 50 µM; IC50 [8, 17]: 6 µM; IC50 [9, 18]: < 50 µM; IC50 [10, 19]: < 50 µM

Question: For `COc1cccc2c1C(=O)c1c(O)c3c(c(O)c1C2=O)C[C@@](O)(C(=O)CO)C[C@@H]3O[C@H]1C[C@H](N)[C@H](O)[C@H](C)O1` [Doxorubicin], which “activity against CRC cell lines (in words)” value (“activity” for short) [11] is on record?
Answer: nanomolar

Question: Which “antiinflammation potency compared with indomethacin” value [5] does the source give for `CC(C)n1c(/C=C/C(O)CC(O)CC(=O)O)c(-c2ccc(F)cc2)c2ccccc21` (stereo not drawn) [Fluvastatin] here?
Answer: equipotency to indomethacin

Question: What about the IC50 [5, 14] of the same molecule?
Answer: 110 ± 20.6 µM

Question: What about the IC50 [7, 16] of the same molecule?
Answer: > 50 µM

Question: And the IC50 [9, 20]?
Answer: > 50 µM

Question: And the IC50 [10, 19]?
Answer: > 50 µM

Question: With `COc1ccc2c(c1)c(CC(=O)O)c(C)n2C(=O)c1ccc(Cl)cc1` [Indomethacin] as the molecule, how does the IC50 [5, 14] read?
Answer: 87 µM

Question: And the IC50 [5, 15]?
Answer: 86.5 ± 10.5 µM

Question: With `CC[C@H](C)C(=O)O[C@H]1C[C@@H](C)C=C2C=C[C@H](C)[C@H](CC[C@@H]3C[C@@H](O)CC(=O)O3)[C@H]21` [Lovastatin] as the molecule, how does the “antiinflammation potency compared with indomethacin” value [5] read?
Answer: substantially more potent

Question: And the IC50 [5, 14]?
Answer: 42 µM

Question: What about the IC50 [5, 15] of the same molecule?
Answer: 41.6 ± 4.34 µM

Question: And the IC50 [12]?
Answer: > 100 µM

Question: Which results are given for `CC[C@H](C)C(=O)O[C@H]1CCC=C2C=C[C@H](C)[C@H](CC[C@@H]3C[C@@H](O)CC(=O)O3)[C@H]21` [Mevastatin]?
Answer: antiinflammation potency compared with indomethacin [5]: inferior antiinflammation potency to indomethacin; IC50 [5, 14]: 142 ± 17.2 µM; IC50 [7, 21]: > 50 µM; IC50 [8, 17]: < 50 µM; IC50 [8, 22]: 36 µM; IC50 [9, 20]: > 50 µM; IC50 [10, 19]: > 50 µM

Question: Which “antiinflammation potency compared with indomethacin” value [5] does the source give for `O=C(O)C[C@H](O)C[C@H](O)/C=C/c1c(C2CC2)nc2ccccc2c1-c1ccc(F)cc1` [Pitavastatin] here?
Answer: equipotency to indomethacin

Question: What about the IC50 [5, 14] of the same molecule?
Answer: 98.7 ± 1.87 µM

Question: And the IC50 [7, 16]?
Answer: > 50 µM

Question: What about the IC50 [9, 18] of the same molecule?
Answer: > 50 µM

Question: What about the IC50 ([10]; read-out: Cytotoxicity (as of %Control) IC50 value, PANC 1, SRB, 72 h incubations, mean ± SD, n = 3) of the same molecule?
Answer: > 50 µM

Question: With `CC[C@H](C)C(=O)O[C@H]1C[C@H](O)C=C2C=C[C@H](C)[C@H](CC[C@@H](O)C[C@@H](O)CC(=O)O)[C@H]21` [Pravastatin] as the molecule, how does the “antiinflammation potency compared with indomethacin” value [5] read?
Answer: inferior antiinflammation potency to indomethacin

Question: What about the IC50 [5, 14] of the same molecule?
Answer: 204 ± 14.1 µM

Question: And the IC50 [13]?
Answer: < 50 µM

Question: And the IC50 [10, 19]?
Answer: > 50 µM

Question: Which IC50 [1] does the source give for `CC(C)c1nc(N(C)S(C)(=O)=O)nc(-c2ccc(F)cc2)c1/C=C/[C@@H](O)C[C@@H](O)CC(=O)O` [Rosuvastatin] here?
Answer: 15 µM

Question: What about the “antiinflammation potency compared with indomethacin” value [5] of the same molecule?
Answer: equipotency to indomethacin

Question: And the IC50 [5, 14]?
Answer: 74.2 ± 13.1 µM

Question: And the IC50 [7, 21]?
Answer: > 50 µM

Question: What about the IC50 [8, 22] of the same molecule?
Answer: 23 µM

Question: What about the IC50 [9, 20] of the same molecule?
Answer: 1.5 µM

Question: What about the IC50 [10, 19] of the same molecule?
Answer: > 50 µM

Question: Which “antiinflammation potency compared with indomethacin” value [5] does the source give for `CCC(C)(C)C(=O)O[C@H]1C[C@@H](C)C=C2C=C[C@H](C)[C@H](CC[C@@H]3C[C@@H](O)CC(=O)O3)[C@H]21` [Simvastatin] here?
Answer: substantially more potent

Question: What about the IC50 [5, 14] of the same molecule?
Answer: 42 µM

Question: And the IC50 [5, 15]?
Answer: 42.5 ± 6.41 µM

Question: With `O=C(O)c1cn(C2CC2)c2cc(N3CCNCC3)c(F)cc2c1=O` [ciprofloxacin] as the molecule, how does the “activity” value [11] read?
Answer: did not show any activity

Question: For `CO/N=C1\CN(c2nc3c(cc2F)c(=O)c(C(=O)O)cn3C2CC2)CC1CN` (stereo not drawn) [gemifloxacin], which “activity” value [11] is on record?
Answer: active
